From ChEMBL document CHEMBL1134024, “Synthesis and structure-activity studies of side-chain derivatized arylhydantoins for investigation as androgen receptor radioligands” (Bioorg Med Chem Lett, 2001)
pKi: −log10 of the molar value.

Target: T1, Androgen receptor (Rattus norvegicus, UniProt P15207)
T1 sequence (P15207 whole entry): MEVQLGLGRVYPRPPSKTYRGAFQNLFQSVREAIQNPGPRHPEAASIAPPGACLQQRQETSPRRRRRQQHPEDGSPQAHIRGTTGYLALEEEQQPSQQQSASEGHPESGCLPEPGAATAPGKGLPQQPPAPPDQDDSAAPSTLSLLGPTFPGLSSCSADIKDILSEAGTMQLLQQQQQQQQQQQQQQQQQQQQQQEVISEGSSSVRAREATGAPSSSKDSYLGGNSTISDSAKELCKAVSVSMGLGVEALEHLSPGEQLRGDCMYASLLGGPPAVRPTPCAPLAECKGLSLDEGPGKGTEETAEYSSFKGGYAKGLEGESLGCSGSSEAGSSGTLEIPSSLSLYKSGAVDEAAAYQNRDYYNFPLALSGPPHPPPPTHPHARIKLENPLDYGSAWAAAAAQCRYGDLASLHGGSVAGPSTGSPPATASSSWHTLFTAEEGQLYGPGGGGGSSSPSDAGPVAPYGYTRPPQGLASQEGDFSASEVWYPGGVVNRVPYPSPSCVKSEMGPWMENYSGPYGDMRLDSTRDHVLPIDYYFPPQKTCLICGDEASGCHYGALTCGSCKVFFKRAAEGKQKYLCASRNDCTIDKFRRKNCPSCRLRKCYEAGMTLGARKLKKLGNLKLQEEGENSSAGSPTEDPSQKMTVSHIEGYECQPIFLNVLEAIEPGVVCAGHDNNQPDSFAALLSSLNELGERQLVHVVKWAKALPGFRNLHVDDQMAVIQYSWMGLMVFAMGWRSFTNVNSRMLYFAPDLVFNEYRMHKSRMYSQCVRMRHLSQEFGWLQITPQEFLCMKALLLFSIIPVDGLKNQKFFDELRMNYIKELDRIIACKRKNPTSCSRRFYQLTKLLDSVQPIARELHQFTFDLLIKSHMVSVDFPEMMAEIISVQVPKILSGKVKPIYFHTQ
Test: Binding affinity against rat prostate cytosolic Androgen receptor using [3H]mibolerone as radioligand
Settings: not given

Row | SMILES | pKi
1 | COCCN1C(=O)N(c2ccc(C#N)c(C(F)(F)F)c2)C(=O)C1(C)C | 6.92
2 | CN1C(=O)N(c2ccc(C#N)c(C(F)(F)F)c2)C(=O)C1(C)C | 7.43
3 | CC1(C)C(=O)N(c2ccc(C#N)c(C(F)(F)F)c2)C(=O)N1CCc1cccc(I)c1 | 6.09
4 | CC1(C)C(=O)N(c2ccc(C#N)c(C(F)(F)F)c2)C(=O)N1CCCc1ccc(I)cc1 | 7.19
5 | CC1(C)C(=O)N(c2ccc(C#N)c(C(F)(F)F)c2)C(=O)N1Cc1cccc(I)c1 | 6.91
6 | CC1(C)C(=O)N(c2ccc(C#N)c(C(F)(F)F)c2)C(=O)N1C/C=C/I | 7.89
7 | CC1(C)C(=O)N(c2ccc(C#N)c(C(F)(F)F)c2)C(=O)N1CCCCO [RU-58841] | 7.59
8 | CC1(C)C(=O)N(c2ccc(C#N)c(C(F)(F)F)c2)C(=O)N1Cc1ccc(I)cc1 | 6.82
9 | CC1(C)C(=O)N(c2ccc(C#N)c(C(F)(F)F)c2)C(=O)N1CCc1ccc(I)cc1 | 6.38
10 | CC1(C)C(=O)N(c2ccc(C#N)c(C(F)(F)F)c2)C(=O)N1CCCF | 6.49
11 | CC1(C)C(=O)N(c2ccc(C#N)c(C(F)(F)F)c2)C(=O)N1CCF | 6.85
12 | CC1(C)C(=O)N(c2ccc(C#N)c(C(F)(F)F)c2)C(=O)N1CCCc1cccc(I)c1 | 6.44

Target: T2, Androgen receptor (Rattus norvegicus) (UniProt P15207)
T2 sequence (whole entry): T1 sequence (P15207 whole entry)
Settings: Prostate gland
Description: Displacement of [3H]-mibolerone from rat prostate cytosolic Androgen receptor

Row | SMILES | Ka [nM]
13 | CC1(C)C(=O)N(c2ccc(C#N)c(C(F)(F)F)c2)C(=O)N1CCCCO [RU-58841] | 1.2
